# Test results as given in US20160000796A1, “PHARMACEUTICAL COMPOSITION FOR USE IN PREVENTION OR TREATMENT OF CANCER” (priority 2013, published 2016).
# Columns and labels:
# [1] = system: Kit225 (non-HTLV-1-infected cell line); assay: Cellular proliferation (MTS assay), Kit225; format: cell-based; details: 100 μM
# Procedure: (§1) Each nucleoside analogue reverse transcriptase inhibitor was added to the medium for cells at a final concentration of 100 μM. Cells were seeded on a 96-well plate at a concentration of 1×10^4 cells/100 μL/well and cultured for 4 hours (Day 0), 48 hours (Day 2) or 96 hours (Day 4). A medium added DMSO (solvent control) alone was used as a control. Cellular proliferation was examined by MTS assay. Specifically, after the cells were cultured for a predetermined time, a reagent for cellular proliferation test, Aqueous One Solution Cell Proliferation (trade name, manufactured by Promega), was added to the cells. Four hours later, absorbance at 490 nm was measured. The cellular proliferation was represented by a ratio relative to that of the control (solvent control) on Day 0 that was regarded as 1.
# (§2) This example used non-HTLV-1-infected cell lines: Jurkat (cell line derived from human T-cell leukemia, ATCC No: TIB-152), Kit225 (cell line derived from chronic T-cell leukemia, established in the laboratory of the inventors, Blood. 1987 October; 70 (4): 1069-72.), H9 (cell line derived from cutaneous T-cell lymphoma, ATCC No: HTB-176) and SUDHL6 (cell line derived from diffuse B cell lymphoma).
# (§3) The six types of nucleoside analogue reverse transcriptase inhibitors as used in Example 1 were used and cellular proliferation was examined in the same manner as in Example 1.
# [2] = system: ATL cell line, ED40515 (−); assay: Apoptosis (annexin V flow cytometry), ED40515 (−); format: cell-based; details: 100 μM, 24 or 48 hours
# Procedure: DMSO (solvent control), adriamycin (ADR, positive control), or abacavir (100 μM) was added to an ATL cell line, ED40515 (−). The cells were cultured for 24 hours or 48 hours. After the culture of a predetermined time, the cells were stained with annexin V, and annexin V positive cells were measured by flow cytometry. The annexin V positive cells were determined as apoptotic cells.
# [3] = system: ED40515 (−) (non-virus-producing ATL cell line); assay: Cellular proliferation (MTS assay), ED40515 (−); format: cell-based
# Procedure: as §1
# (§4) This example used HTLV-1-infected cell lines (non-virus-producing ATL cell lines): ED40515 (−), ED40515 (+), and ATL43T (all were provided by Prof. Michiyuki Maeda who produced the cells); and SYK-11L (+) (prepared in the laboratory of the inventors).
# (§5) The six types of nucleoside analogue reverse transcriptase inhibitors as used in Example 1 were used and cellular proliferation was examined in the same manner as in Example 1. […]
# [4] = system: non-ATL cell line, Jurkat; assay: Chromosome double-strand break (Giemsa chromosome specimens), Jurkat; format: cell-based, human; details: 100 μM, 48 hours
# Procedure: Abacavir was added to an ATL cell line, ED40515 (−), at a concentration of 0 μM (DMSO was added instead of abacavir), 10 μM, 25 μM, 50 μM, 75 μM or 100 μM. After the 48 hours culture, the cells were fixed by Carnoy and stained with Giemsa to prepare chromosome specimens in accordance with conventional methods. Similarly, zidovudine was added to ED40515 (−) at a concentration of 10 μM or 100 μM, and abacavir was added to a non-ATL cell line, Jurkat, at a concentration of 100 μM, and chromosome specimens were prepared. Chromosome images (100 or more images per group) were observed by an optical microscope. The cells were determined as being positive for double-strand break (DSB) when at least one chromosome break was found.
# [5] = system: DT40-derived mutants each lacking a DNA repair enzyme; assay: Cellular proliferation of DT40-derived mutants (CellTiter-Glo ATP method); format: cell-based, chicken; details: 25 μM, 48 hours
# From the text: This example used wild-type DT40, which is a chicken B cell-derived cell line, and DT40-devired mutants each lacking a DNA repair enzyme. Those cell lines are available from the laboratory of Radiation Genetics, Graduate School of Medicine and Faculty of Medicine Kyoto University (see, Literatures: (1) Mol Cell Biol. 2001 April; 21 (8): 2858-66. (2) PLoS Genet. 2011 July; 7 (7): e1002148. (3) Mol Cell Biol. 2008 October; 28 (19): 6113-22. (4) J Biol Chem. 2012 Apr. 13; 287 (16): 12848-57.).
# Abacavir was added to the medium of each cell line at a final concentration of 25 μM. The cells were seeded on a 96-well plate at a concentration of 1×10^4 cells/100 μL/well and cultured for 48 hours. After the culture, cellular proliferation was determined by CellTiter-Glo Luminescent Cell Viability Assay (trade name, manufactured by Promega) in accordance with the ATP method.
# Specifically, the value on the vertical axis is −1 when the proliferation rate compared to the wild-type is 50%, and −2 when the proliferation rate compared to the wild-type is 25%.
# [6] = system: Jurkat (non-HTLV-1-infected cell line); assay: Cellular proliferation (MTS assay), Jurkat; format: cell-based, human; details: 100 μM
# Procedure: as §1, §2, §3
# HTLV-1 = assay: Measurement of amount of virus (HTLV-1 P19 ELISA), MT2; format: cell-based, human T-cell leukemia virus type 1; details: 100 μM, Day 0, 2, 4, 7, compared among six NRTIs
# Procedure: HTLV-1-producing cell lines, MT2 (transformant with HTLV-1, JCRB cell No: JCRB1210) and HUT102 (ATL-derived cell line, ATCC No: TIB-162), were used.
# Each nucleoside analogue reverse transcriptase inhibitor was added to the medium for cells at a final concentration of 100 μM. Cells were seeded on a 96-well plate at a concentration of 1×10^4 cells/100 μL/well and cultured for 0 hour (Day 0), 48 hours (2 days), 96 hours (4 days) or 168 hours (7 days). At each time point, the medium was collected. The amount of virus contained in the medium collected at each time point (pg/mL) was measured by HTLV-1 P19 ELISA kit (manufactured by Zeptometrix).
# [7] = system: SUDHL6 (non-HTLV-1-infected cell line); assay: Cellular proliferation (MTS assay), SUDHL6; format: cell-based; details: 100 μM
# Procedure: as §1, §2, §3
# [8] = system: SYK-11L (+) (non-virus-producing ATL cell line); assay: Cellular proliferation (MTS assay), SYK-11L (+); format: cell-based
# Procedure: as §1, §4, §5
smiles,measurement,setting,value
"Nc1nc(NC2CC2)c2ncn([C@H]3C=C[C@@H](CO)C3)c2n1 [abacavir, (−)-(1S,4R)-4-[2-amino-6-(cyclopropylamino)-9H-purin-9-yl]-2-cyclopentene-1-methanol]",cellular proliferation,[1],did not exhibit a suppressive effect
same,apoptosis (annexin V positive cells),[2],induced apoptosis
same,cellular proliferation,[3]; 100 μM,strong suppressive effect
same,"cellular proliferation, dose dependence","[3]; 10-100 μM, Day 0, 2, 4",suppressed cellular proliferation of all the cell lines in a dose-dependent manner
same,ratio of double-strand break-positive cells,[4],did not induce double-strand break
same,cellular proliferation relative to wild-type DT40 (Log2 Gene/WT),[5]; DT40 mutant lacking BRCA1,showed a suppressive effect
same,cellular proliferation relative to wild-type DT40 (Log2 Gene/WT),[5]; DT40 mutant lacking GEN1,showed a suppressive effect
same,cellular proliferation relative to wild-type DT40 (Log2 Gene/WT),[5]; DT40 mutant lacking PCNA,showed a suppressive effect
same,cellular proliferation relative to wild-type DT40 (Log2 Gene/WT),[5]; DT40 mutant lacking TDP1,showed a suppressive effect
same,cellular proliferation relative to wild-type DT40 (Log2 Gene/WT),[5]; DT40 mutant lacking XRCC2,showed a suppressive effect
same,cellular proliferation,[6],did not exhibit a suppressive effect
same,viral production (amount of virus in the medium),HTLV-1,most strongly suppressed
same,cellular proliferation,[7],did not exhibit a suppressive effect
same,cellular proliferation,[8]; 100 μM,strong suppressive effect
same,"cellular proliferation, dose dependence","[8]; 10-100 μM, Day 0, 2, 4",suppressed cellular proliferation of all the cell lines in a dose-dependent manner
